Laboratory results as given in patent publication US20110039721A1, “METHOD FOR PREDICTION ABOUT CARCINOGENICITY OF SUBSTANCE IN RODENT” (Chemicals Evaluation and Research Institute, priority 2007, published 2011).

Legend:
[1] = test system: mRNA expressed from the genes (A) to (D) in rat liver; test: Behavior of genes (mRNA expression level, oligo-DNA microarray) in rat liver after 28-day oral administration; format: in vivo
How it was run: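 Rat liver RNA after 28 days of daily gavage dosing (male F344, 5 weeks old, four per group). A change reaching 1.5-fold, or 1/1.5, against solvent control scores as significant; opposite direction versus another carcinogen scores as not significant.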

rodent = conditions: in vivo; cited from earlier work
liver = conditions: in vivo; cited from earlier work
[2] = (C), Unigene Rn.120914, defined direction +, rat liver, oral once daily 28 days
[3] = gene group (A), Unigene No. Rn.167075
[4] = gene group (C), Unigene No. Rn.120914

## CC(=N)S [TS030, Thioacetoamide]
[1]; (A), Unigene Rn.144554, defined direction +, rat liver, oral once daily 28 days
  Behavior of gene caused by administration of chemical substance, Gene No. 4846: +
[1]; (A), Unigene Rn.167075, defined direction +, rat liver, oral once daily 28 days, significant = 1.5 times or more or 1/1.5 or less of control
  Behavior of gene caused by administration of chemical substance, Gene No. 4218: +
[1]; (A), Unigene Rn.167075, defined direction −, rat liver, oral once daily 28 days
  Behavior of gene caused by administration of chemical substance, Gene No. 2026: +
[1]; (A), Unigene Rn.5834, defined direction +, rat liver, oral once daily 28 days
  Behavior of gene caused by administration of chemical substance, Gene No. 6182: +
[1]; (A), Unigene Rn.9836, defined direction +, rat liver, oral once daily 28 days
  Behavior of gene caused by administration of chemical substance, Gene No. 5600: +
[1]; (B), Unigene Rn.1430, defined direction −, rat liver, oral once daily 28 days
  Behavior of gene caused by administration of chemical substance, Gene No. 1494: +
[1]; (B), Unigene Rn.19329, defined direction +, rat liver, oral once daily 28 days
  Behavior of gene caused by administration of chemical substance, Gene No. 2045: −
[1]; (B), Unigene Rn.21240, defined direction +, rat liver, oral once daily 28 days
  Behavior of gene caused by administration of chemical substance, Gene No. 2203: −
[1]; (C), Unigene Rn.106184, defined direction +, rat liver, oral once daily 28 days
  Behavior of gene caused by administration of chemical substance, Gene No. 533: +
[1]; (C), Unigene Rn.108075, defined direction −, rat liver, oral once daily 28 days
  Behavior of gene caused by administration of chemical substance, Gene No. 725: +
[1]; (C), Unigene Rn.11766, defined direction +, rat liver, oral once daily 28 days
  Behavior of gene caused by administration of chemical substance, Gene No. 1163: −
[1]; (C), Unigene Rn.118529, defined direction −, rat liver, oral once daily 28 days
  Behavior of gene caused by administration of chemical substance, Gene No. 4973: +
[1]; (C), Unigene Rn.119024, defined direction −, rat liver, oral once daily 28 days
  Behavior of gene caused by administration of chemical substance, Gene No. 4095: +
[1]; [2]
  Behavior of gene caused by administration of chemical substance, Gene No. 1334: −
  Behavior of gene caused by administration of chemical substance, Gene No. 6620: −
[1]; (C), Unigene Rn.123063, defined direction −, rat liver, oral once daily 28 days
  Behavior of gene caused by administration of chemical substance, Gene No. 6303: +
[1]; (C), Unigene Rn.143213, defined direction −, rat liver, oral once daily 28 days
  Behavior of gene caused by administration of chemical substance, Gene No. 5878: −
[1]; (C), Unigene Rn.144946, defined direction −, rat liver, oral once daily 28 days
  Behavior of gene caused by administration of chemical substance, Gene No. 1131: −
[1]; (C), Unigene Rn.14744, defined direction −, rat liver, oral once daily 28 days
  Behavior of gene caused by administration of chemical substance, Gene No. 1562: +
[1]; (C), Unigene Rn.1647, defined direction −, rat liver, oral once daily 28 days
  Behavior of gene caused by administration of chemical substance, Gene No. 1741: +
[1]; (C), Unigene Rn.164817, defined direction +, rat liver, oral once daily 28 days
  Behavior of gene caused by administration of chemical substance, Gene No. 893: +
[1]; (C), Unigene Rn.167685, defined direction −, rat liver, oral once daily 28 days
  Behavior of gene caused by administration of chemical substance, Gene No. 6026: −
[1]; (C), Unigene Rn.185941, defined direction −, rat liver, oral once daily 28 days
  Behavior of gene caused by administration of chemical substance, Gene No. 154: +
[1]; (C), Unigene Rn.18728, defined direction −, rat liver, oral once daily 28 days
  Behavior of gene caused by administration of chemical substance, Gene No. 1993: +
[1]; (C), Unigene Rn.201760, defined direction +, rat liver, oral once daily 28 days
  Behavior of gene caused by administration of chemical substance, Gene No. 813: +
[1]; (C), Unigene Rn.23969, defined direction +, rat liver, oral once daily 28 days
  Behavior of gene caused by administration of chemical substance, Gene No. 2494: +
[1]; (C), Unigene Rn.24561, defined direction −, rat liver, oral once daily 28 days
  Behavior of gene caused by administration of chemical substance, Gene No. 2546: −
[1]; (C), Unigene Rn.43232, defined direction −, rat liver, oral once daily 28 days
  Behavior of gene caused by administration of chemical substance, Gene No. 3776: +
[1]; (C), Unigene Rn.4620, defined direction +, rat liver, oral once daily 28 days
  Behavior of gene caused by administration of chemical substance, Gene No. 3929: −
[1]; (C), Unigene Rn.9757, defined direction +, rat liver, oral once daily 28 days
  Behavior of gene caused by administration of chemical substance, Gene No. 1119: −
[1]; (C), Unigene Rn.9779, defined direction +, rat liver, oral once daily 28 days
  Behavior of gene caused by administration of chemical substance, Gene No. 6742: −
[1]; (C), Unigene Rn.9862, defined direction −, rat liver, oral once daily 28 days
  Behavior of gene caused by administration of chemical substance, Gene No. 5634: −
[1]; (D), Unigene Rn.9939, defined direction −, rat liver, oral once daily 28 days
  Behavior of gene caused by administration of chemical substance, Gene No. 5726: +
rodent
  Carcinogenicity: C+
liver
  Liver carcinogenicity: Cr+

## Cc1cc(N)ccc1N.O=S(=O)(O)O [TS060, 2,5-Toluenediamine SO4]
[1]; gene group (A), Unigene No. Rn.144554
  Behavior of gene caused by administration of chemical substance, Gene No. 4846: −
[1]; [3]
  Behavior of gene caused by administration of chemical substance, Gene No. 2026: −
  Behavior of gene caused by administration of chemical substance, Gene No. 4218: −
[1]; gene group (A), Unigene No. Rn.5834
  Behavior of gene caused by administration of chemical substance, Gene No. 6182: −
[1]; gene group (A), Unigene No. Rn.9836
  Behavior of gene caused by administration of chemical substance, Gene No. 5600: −
[1]; gene group (B), Unigene No. Rn.1430
  Behavior of gene caused by administration of chemical substance, Gene No. 1494: −
[1]; gene group (B), Unigene No. Rn.19329
  Behavior of gene caused by administration of chemical substance, Gene No. 2045: −
[1]; gene group (B), Unigene No. Rn.21240
  Behavior of gene caused by administration of chemical substance, Gene No. 2203: −
[1]; gene group (C), Unigene No. Rn.106184
  Behavior of gene caused by administration of chemical substance, Gene No. 533: −
[1]; gene group (C), Unigene No. Rn.108075
  Behavior of gene caused by administration of chemical substance, Gene No. 725: −
[1]; gene group (C), Unigene No. Rn.11766
  Behavior of gene caused by administration of chemical substance, Gene No. 1163: +
[1]; gene group (C), Unigene No. Rn.118529
  Behavior of gene caused by administration of chemical substance, Gene No. 4973: −
[1]; gene group (C), Unigene No. Rn.119024
  Behavior of gene caused by administration of chemical substance, Gene No. 4095: −
[1]; [4]
  Behavior of gene caused by administration of chemical substance, Gene No. 1334: −
  Behavior of gene caused by administration of chemical substance, Gene No. 6620: −
[1]; gene group (C), Unigene No. Rn.123063
  Behavior of gene caused by administration of chemical substance, Gene No. 6303: −
[1]; gene group (C), Unigene No. Rn.143213
  Behavior of gene caused by administration of chemical substance, Gene No. 5878: −
[1]; gene group (C), Unigene No. Rn.144946
  Behavior of gene caused by administration of chemical substance, Gene No. 1131: +
[1]; gene group (C), Unigene No. Rn.14744
  Behavior of gene caused by administration of chemical substance, Gene No. 1562: −
[1]; gene group (C), Unigene No. Rn.1647
  Behavior of gene caused by administration of chemical substance, Gene No. 1741: −
[1]; gene group (C), Unigene No. Rn.164817
  Behavior of gene caused by administration of chemical substance, Gene No. 893: +
[1]; gene group (C), Unigene No. Rn.167685
  Behavior of gene caused by administration of chemical substance, Gene No. 6026: −
[1]; gene group (C), Unigene No. Rn.185941
  Behavior of gene caused by administration of chemical substance, Gene No. 154: −
[1]; gene group (C), Unigene No. Rn.18728
  Behavior of gene caused by administration of chemical substance, Gene No. 1993: −
[1]; gene group (C), Unigene No. Rn.201760
  Behavior of gene caused by administration of chemical substance, Gene No. 813: −
[1]; gene group (C), Unigene No. Rn.23969
  Behavior of gene caused by administration of chemical substance, Gene No. 2494: −
[1]; gene group (C), Unigene No. Rn.24561
  Behavior of gene caused by administration of chemical substance, Gene No. 2546: −
[1]; gene group (C), Unigene No. Rn.43232
  Behavior of gene caused by administration of chemical substance, Gene No. 3776: −
[1]; gene group (C), Unigene No. Rn.4620
  Behavior of gene caused by administration of chemical substance, Gene No. 3929: +
[1]; gene group (C), Unigene No. Rn.9757
  Behavior of gene caused by administration of chemical substance, Gene No. 1119: −
[1]; gene group (C), Unigene No. Rn.9779
  Behavior of gene caused by administration of chemical substance, Gene No. 6742: −
[1]; gene group (C), Unigene No. Rn.9862
  Behavior of gene caused by administration of chemical substance, Gene No. 5634: +
[1]; gene group (D), Unigene No. Rn.9939
  Behavior of gene caused by administration of chemical substance, Gene No. 5726: −
rodent
  Carcinogenicity: C−
liver
  Liver carcinogenicity: Cr−
